Experimental data taken from patent publication US9416103B2, “Use of the aminoalkylindole JWH-073-M4 and related compounds as neutral CB1 receptor antagonists for the treatment of alcoholism, drug abuse, obesity, and obesity-related diseases” (The Board of Trustees of the University of Arkansas, priority 2012, dated 2016).

Test system: NIH Swiss mice
Experiment: Locomotor activity by biotelemetry (cannabinoid tetrad)
Assay type: in vivo, mouse
Conditions: M4 10 mg/kg i.p. + JWH-018 3 mg/kg i.p.

CCCCn1cc(C(=O)c2cccc3ccccc23)c2cccc(O)c21 [Compound M4]
antagonism of JWH-018-induced locomotor suppression: no difference
